Assay results taken from publication PMC7251097, “Aspartate/asparagine-β-hydroxylase: a high-throughput mass spectrometric assay for discovery of small molecule inhibitors” (Scientific Reports, 2020).
Structures can show the parent of a compound that is named as a salt. Where two headings read alike, the source gives them in different places. One block for each compound: values may come before it. Residues, ends and D or L forms follow the SMILES beside them. *: point of attachment. Cbz = O=C(OCc1ccccc1)*

Biological target: T1, His6-AspH315–758 (human aspartate/asparagine-β-hydroxylase, AspH) (Homo sapiens, UniProt Q12797)
T1 construct: N-Terminally His6-tagged human AspH315–758 (His6-AspH315–758) was produced in E. coli BL21 (DE3) cells; made in house; host or cells: E. coli BL21 (DE3), pET-28a(+) vector
T1 sequence (Q12797 315-758): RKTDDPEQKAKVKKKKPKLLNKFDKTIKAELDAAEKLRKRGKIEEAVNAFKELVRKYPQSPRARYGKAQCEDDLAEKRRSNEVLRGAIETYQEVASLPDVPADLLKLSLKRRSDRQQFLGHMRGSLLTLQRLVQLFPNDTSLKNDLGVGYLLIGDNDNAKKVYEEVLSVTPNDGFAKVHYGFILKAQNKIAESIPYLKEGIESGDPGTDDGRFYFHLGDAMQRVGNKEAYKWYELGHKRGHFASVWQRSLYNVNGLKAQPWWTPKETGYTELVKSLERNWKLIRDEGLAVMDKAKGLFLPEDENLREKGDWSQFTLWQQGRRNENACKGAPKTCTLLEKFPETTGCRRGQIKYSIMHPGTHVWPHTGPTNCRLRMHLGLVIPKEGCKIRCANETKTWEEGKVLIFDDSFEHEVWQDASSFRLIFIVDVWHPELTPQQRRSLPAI
Assay: SPE-MS AspH inhibition assay (LOPAC screen at fixed 20 μM and IC50 dose-response), hydroxylation of cyclic peptide hFX-CP101–119
Assay type: biochemical
Settings: for IC50: 50 nM His6-AspH315–758, 1.0 μM hFX-CP101–119, 3 μM 2OG, 2 μM Fe(II), 50 mM HEPES pH 7.5, 20 °C, mean ± SD, n = 2 (2,4-PDCA n = 10), read-out: IC50

[1] = LOPAC compound at 20uM, plate 3, conversion of substrate peptide
[2] = LOPAC compound at fixed 20 uM, plate 1, normalised to DMSO and 2,4-PDCA controls
[3] = LOPAC compound at fixed 20 uM, substrate conversion, plate 1
[4] = LOPAC compound at 20uM, plate 2, conversion of substrate peptide
[5] = LOPAC compound at 20uM, plate 2, normalised to DMSO and 2,4-PDCA controls
[6] = LOPAC compound at 20uM, plate 2, normalised to DMSO and 2,4-PDCA controls, read-out: Plate 2 (% inhibition)
[7] = AspH activity, fixed compound concentration 20 μM, initial LOPAC screen, 0.5%v/v DMSO, read-out: Inhibition at 20 µM [%]

Plate 3 (% conversion) [1]: 37.37%
SMILES: CCn1cc(C(=O)O)c(=O)c2cc(F)c(N3CCNC(C)C3)c(F)c21 (stereo not shown) [Lomefloxacin hydrochloride]

Plate 1 (% inhibition) [2]: -1.89%
Plate 1 (% conversion) [3]: 36.51%
SMILES: CCCCN(CCCC)CC(O)c1cc(Cl)cc2c1-c1ccc(Cl)cc1/C2=C/c1ccc(Cl)cc1 (stereo not shown) [Lumefantrine]

Plate 3 (% conversion) [1]: 33.83%
SMILES: CC(C)[C@H](NC(=O)OCc1ccccc1)C(=O)N[C@H](C=O)Cc1ccccc1 [MDL 28170] (Cbz-Val-Phe-aldehyde)

Plate 3 (% conversion) [1]: 29.92%
SMILES: CC[N+](CC)(CC)CCOc1ccc(/C=C/c2ccccc2)cc1 [MG 624]

IC50: 8.58 ± 1.93 µM
Inhibition at 20 µM [%] (AspH activity, fixed compound concentration 20 μM, initial LOPAC screen, 0.5%v/v DMSO): 99.9%
SMILES: CC(C)c1ccc2c(c1)c(SC(C)(C)C)c(CC(C)(C)C(=O)O)n2Cc1ccc(Cl)cc1 [MK-886, reference compound]

IC50: 4.65 ± 1.28 µM
SMILES: CN(C)CCCNC(=O)c1ccc(-c2cc(O)c3ncccc3c2)cc1 [ML324, reference compound]

Plate 3 (% conversion) [1]: 34.21%
SMILES: CNC1(C)C2CCC(C2)C1(C)C (stereo not shown) [Mecamylamine hydrochloride]

Plate 3 (% conversion) [1]: 31.27%
SMILES: Cc1ccc(Cl)c(Nc2ccccc2C(=O)O)c1Cl [Meclofenamic acid sodium]

Plate 3 (% conversion) [1]: 33.11%
SMILES: Cc1cnc(NC(=O)C2=C(O)c3ccccc3S(=O)(=O)N2C)s1 [Meloxicam sodium]

Plate 3 (% conversion) [1]: 47.43%
SMILES: CN1C[C@H](CNC(=O)OCc2ccccc2)C[C@@H]2c3cccc4c3c(cn4C)C[C@H]21 [Metergoline]

Plate 3 (% conversion) [1]: 47.65%
SMILES: CSc1ccc2c(c1)C(N1CCN(C)CC1)Cc1ccccc1S2 (stereo not shown) [Methiothepin mesylate]

Plate 3 (% conversion) [1]: 35.20%
SMILES: CCN(CC)CCNC(=O)c1cc(Cl)c(N)cc1OC.Cl [Metoclopramide hydrochloride]

Plate 3 (% conversion) [1]: 41.68%
SMILES: CC[C@H](C)C(=O)O[C@H]1CCC=C2C=C[C@H](C)[C@H](CC[C@@H]3C[C@@H](O)CC(=O)O3)[C@H]21 [Mevastatin]

Plate 3 (% conversion) [1]: 43.45%
SMILES: CN1CCN2c3ccccc3Cc3ccccc3C2C1 (stereo not shown) [Mianserin hydrochloride]

Plate 3 (% conversion) [1]: 62.31%
SMILES: COCC(=O)O[C@]1(CCN(C)CCCc2nc3ccccc3[nH]2)CCc2cc(F)ccc2[C@@H]1C(C)C [Mibefradil dihydrochloride]

Plate 3 (% conversion) [1]: 8.64%
SMILES: CN(C)c1ccc(O)c2c1C[C@H]1C[C@H]3[C@H](N(C)C)C(O)=C(C(N)=O)C(=O)[C@@]3(O)C(O)=C1C2=O [Minocycline hydrochloride]

Plate 3 (% conversion) [1]: 39.51%
SMILES: O=C([O-])[C@H](CC(=O)N1C[C@H]2CCCC[C@H]2C1)Cc1ccccc1.O=C([O-])[C@H](CC(=O)N1C[C@H]2CCCC[C@H]2C1)Cc1ccccc1.[Ca+2] [Mitiglinide calcium]

Plate 3 (% conversion) [1]: 41.03%
SMILES: NC(=O)c1ncn([C@@H]2O[C@H](CO)[C@@H](O)[C@H]2O)c1O [Mizoribine]

Plate 3 (% conversion) [1]: 38.98%
SMILES: O=C(NCCN1CCOCC1)c1ccc(Cl)cc1 [Moclobemide]

IC50: 13.4 ± 1 µM
SMILES: O=c1c(-n2ccnn2)c[nH]n1-c1cc(N2CCOCC2)ncn1 [Molidustat, molidustat, reference compound]

Plate 1 (% inhibition) [2]: -0.97%
Plate 1 (% conversion) [3]: 36.20%
SMILES: Nc1ccc(CCNc2ncnc3c2ncn3[C@@H]2O[C@H](CO)[C@@H](O)[C@H]2O)cc1 [N6-2-(4-Aminophenyl)ethyladenosine]

Plate 2 (% conversion) [4]: 38.74%
Plate 2 (% inhibition) [5]: -8.32%
SMILES: CN(C)C(=O)N=NC(=O)N(C)C [N,N,N,N-Tetramethylazodicarboxamide]

Plate 1 (% inhibition) [2]: -9.54%
Plate 1 (% conversion) [3]: 39.07%
SMILES: Nc1ccc(N2C(=O)c3ccccc3C2=O)c(Cl)c1 [N-(4-Amino-2-chlorophenyl)phthalimide]

Plate 1 (% inhibition) [2]: 6.30%
Plate 1 (% conversion) [3]: 33.76%
SMILES: CC(=O)N[C@@H](CS)C(=O)O [N-Acetyl-L-Cysteine]

Plate 1 (% inhibition) [2]: 3.70%
Plate 1 (% conversion) [3]: 34.63%
SMILES: CCN(CC)CCNC(=O)c1ccc(NC(C)=O)cc1.Cl [N-Acetylprocainamide hydrochloride]

inhibition at 20 µM [6]: -3.91%
SMILES: Clc1ccc2c(c1)N=C(N1CCNCC1)c1ccccc1N2 [N-Desmethylclozapine]

Plate 2 (% conversion) [4]: 36.80%
Plate 2 (% inhibition) [5]: -2.54%
SMILES: CNC(=O)c1cc2c(cn1)[nH]c1ccccc12 [N-Methyl-beta-carboline-3-carboxamide]

The remaining lines, values behind:

SMILES: O=C1N(c2ccccc2)c2ccccc2C1(Cc1ccncc1)Cc1ccncc1 [Linopirdine]
Plate 3 (% conversion) [1]: 41.24%

SMILES: [Cl-].[Li+] [Lithium Chloride]
Plate 2 (% conversion): 35.61%
Plate 2 (% inhibition) (20 µM): 1.04%

SMILES: Nc1nc2c(c(=O)[nH]1)C[C@@H](CCc1ccc(C(=O)N[C@@H](CCC(=O)O)C(=O)O)cc1)CN2.O [Lometrexol hydrate]
Plate 3 (% conversion): 27.08%

SMILES: CCCCCN(CCCCC)C(=O)C(CCC(=O)O)NC(=O)c1ccc(Cl)c(Cl)c1 (stereo not shown) [Lorglumide sodium]
Plate 3 (% conversion) [1]: 33.56%

SMILES: CC1(N2CCC(n3c([C@@H]4CCCNC4)nc4ccccc43)CC2)CCCCCCC1 [MCOPPB]
Plate 5 (% conversion): 39.16%
Plate 5 (% inhibition): -8.35%

SMILES: CN1CC[C@]2(CCN3CCc4c(oc5ccccc45)[C@@H]3C2)N(C)C1=O.Cl [MK-912]
Plate 3 (% conversion) [1]: 38.39%

SMILES: O=[N+]([O-])/C=C/c1ccc2c(c1)OCO2 [MNS]
Plate 2 (% conversion) [4]: 25.80%
Plate 2 (% inhibition) [5]: 30.34%

SMILES: CNCCCC12CCC(c3ccccc31)c1ccccc12 [Maprotiline hydrochloride]
Plate 3 (% conversion) [1]: 42.77%

SMILES: C[N+](C)(C)CC#CCOC(=O)Nc1cccc(Cl)c1.[Cl-] [McN-A-343]
Plate 1 (% inhibition) [2]: -1.57%
Plate 1 (% conversion) [3]: 36.40%

SMILES: CC(C)NCC(O)c1cc(O)cc(O)c1.CC(C)NCC(O)c1cc(O)cc(O)c1.O=S(=O)(O)O (stereo not shown) [Metaproterenol hemisulfate]
Plate 3 (% conversion) [1]: 40.68%

SMILES: CN(Cc1cnc2nc(N)nc(N)c2n1)c1ccc(C(=O)N[C@@H](CCC(=O)O)C(=O)O)cc1.O [Methotrexate hydrate]
Plate 1 (% inhibition) [2]: -3.72%
Plate 1 (% conversion) [3]: 37.12%

SMILES: COc1ccc(OC)c(C(O)C(C)N)c1 (stereo not shown) [Methoxamine hydrochloride]
Plate 3 (% conversion): 32.85%

SMILES: Cc1ccccc1N1C(=O)c2cc(S(N)(=O)=O)c(Cl)cc2NC1C (stereo not shown) [Metolazone]
Plate 2 (% conversion) [4]: 34.23%
inhibition at 20 µM [6]: 5.16%
Plate 3 (% conversion) [1]: 30.85%

SMILES: Cc1[nH]c(=O)c(C#N)cc1-c1ccncc1 [Milrinone]
Plate 3 (% conversion) [1]: 40.58%

SMILES: CCc1c(C)[nH]c2c1C(=O)C(CN1CCOCC1)CC2 (stereo not shown) [Molindone hydrochloride]
Plate 3 (% conversion) [1]: 42.00%

SMILES: CCOC(=O)[N-]c1cn(N2CCOCC2)n[o+]1 [Molsidomine]
Plate 3 (% conversion): 34.83%

SMILES: O=c1c(O)c(-c2ccc(O)cc2O)oc2cc(O)cc(O)c12 [Morin, reference compound]
inhibition at 20 µM [7]: 101%

SMILES: CC(=O)Oc1cc(C(C)C)c(OCCN(C)C)cc1C [Moxisylyte hydrochloride]
Plate 3 (% conversion) [1]: 37.49%

SMILES: COc1nc(C)nc(Cl)c1NC1=NCCN1.Cl [Moxonidine hydrochloride]
Plate 3 (% conversion) [1]: 33.12%

SMILES: Br.NCc1cc(O)no1 [Muscimol hydrobromide]
Plate 2 (% conversion): 37.87%
Plate 2 (% inhibition) (20 µM): -5.71%

SMILES: O=c1c(O)c(-c2cc(O)c(O)c(O)c2)oc2cc(O)cc(O)c12 [Myricetin, reference compound]
Plate 3 (% conversion): 2.65%
inhibition at 20 µM [7]: 99.4%

SMILES: CCNc1nc2c(ncn2[C@H]2C[C@H](O)[C@@H](CO)O2)c(=O)[nH]1 [N2-Ethyl-2-deoxyguanosine]
% conversion (LOPAC Plate 4, compound at 20 uM, substrate conversion): 26.09%

SMILES: OC[C@H]1O[C@@H](n2cnc3c(NC4CCCC4)ncnc32)[C@H](O)[C@@H]1O [N6-Cyclopentyladenosine]
Plate 1 (% inhibition) [2]: -4.07%

SMILES: CC(=O)NCCc1c[nH]c2ccc(O)cc12 [N-Acetyl-5-hydroxytryptamine]
Plate 1 (% conversion): 34.66%
Plate 1 (% inhibition): 3.61%

SMILES: CC(=O)NCCc1c[nH]c2ccccc12 [N-Acetyltryptamine]
Plate 1 (% inhibition) [2]: -6.27%
Plate 1 (% conversion) [3]: 37.98%

SMILES: CC(=O)NBr [N-Bromoacetamide]
Plate 1 (% inhibition) [2]: 71.66%
Plate 1 (% conversion) [3]: 11.81%

SMILES: CN1C[C@H](O)[C@@H](O)[C@H](O)[C@H]1CO [N-Methyl-1-deoxynojirimycin]
Plate 2 (% conversion) [4]: 34.79%
Plate 2 (% inhibition) [5]: 3.48%

SMILES: CNCCc1ccc(O)c(O)c1.Cl [N-Methyldopamine hydrochloride]
Plate 2 (% conversion): 9.52%
Plate 2 (% inhibition) [5]: 78.96%

SMILES: CNCCc1cnc(CCC(c2ccccc2)c2ccccc2)[nH]1.O=C(O)C(=O)O.O=C(O)C(=O)O [N-Methylhistaprodifen dioxalate salt]
Plate 2 (% conversion) [4]: 8.76%
Plate 2 (% inhibition) [5]: 81.23%
